Laboratory results published in patent US20180200293A1, “STABILIZED GOLD NANOPARTICLES” (priority 2014, published 2018).

Experiments:
[1] = scavenger concentrations as high as 2 M; cited from earlier work
[2] = Electron capture by AuNPs in water, muon spin resonance (μSR); settings: degassed 0.1 M aqueous surfactant reference solution, absence of AuNPs
Source text: To deconstruct the complex electron-transfer reactions in water, we used a highly sensitive spectroscopic technique involving the positive muon (μ+) using the muon spin resonance (μSR) technique (18). The μSR technique is a type of spin spectroscopy that makes use of short-lived subatomic particles, muons (μ^+), which are sensitive magnetic and electronic probes of matter.
A degassed 0.1 M aqueous solution of the dissolved surfactant (bac-14) was used as a reference. […] These electrons therefore combine with positive muons or MuH2O^+ ions to form paramagnetic muonium, an ultra-light hydrogen atom (0.11H) that adds to the aromatic ring of the surfactant (FIG. 15).
The diamagnetic fraction shown in the transverse field spectra (FIG. 17) is enhanced when muons enter the AuNP solution, as compared with the reference solution containing a similar surfactant concentration and evaluated under the same experimental conditions (same sample geometry and magnetic field).
In aqueous solutions, the competition of Reactions 1-5 in the radiation track determines the muon fractions (19-21). […]
where [AuNP] is the AuNP concentration calculated to be 4.89×10^-7 M (see supplementary information) and the muon thermalization rate (10) is at least 1 ns−1.
The lower limit of the electron capture rate constant (ke) for the AuNPs, using Eq. 1, was determined to be 2×10^15 M^−1 s^−1. […]

SMILES | electron capture rate (reported for known scavengers) [1] | trapping of solvated or pre-solvated electrons [2]
C[S+](C)[O-] [DMSO] | 8.1e+11 M⁻¹ s⁻¹ | 
O=[N+]([O-])[O-].[K+] [KNOB] | 1.2e+13 M⁻¹ s⁻¹ | 
CCCCCCCCCCCCCC[N+](C)(C)Cc1ccccc1.[Cl-] [bac-14, Benzyldimethyltetradecylammonium chloride] |  | unable to effectively trap the solvated or pre-solvated electrons
CC(C)O [isopropanol] | 2.3e+11 M⁻¹ s⁻¹ | 
